As usually defined, the IC50 is the concentration at which inhibition is half-maximal.

Here are results for 20 compounds from US8202893B2, “Cannabinergic lipid ligands” (University of Connecticut, priority 2004, dated 2012).

Read-outs that look alike come from different tables or passages of the source.

Test [1] deals with T1, CB1 cannabinoid receptor (Rattus norvegicus, UniProt P20272).
T1 construct: membranes were prepared from rat forebrain membranes; from tissue; host or cells: rat forebrain
T1 sequence (P20272 whole entry): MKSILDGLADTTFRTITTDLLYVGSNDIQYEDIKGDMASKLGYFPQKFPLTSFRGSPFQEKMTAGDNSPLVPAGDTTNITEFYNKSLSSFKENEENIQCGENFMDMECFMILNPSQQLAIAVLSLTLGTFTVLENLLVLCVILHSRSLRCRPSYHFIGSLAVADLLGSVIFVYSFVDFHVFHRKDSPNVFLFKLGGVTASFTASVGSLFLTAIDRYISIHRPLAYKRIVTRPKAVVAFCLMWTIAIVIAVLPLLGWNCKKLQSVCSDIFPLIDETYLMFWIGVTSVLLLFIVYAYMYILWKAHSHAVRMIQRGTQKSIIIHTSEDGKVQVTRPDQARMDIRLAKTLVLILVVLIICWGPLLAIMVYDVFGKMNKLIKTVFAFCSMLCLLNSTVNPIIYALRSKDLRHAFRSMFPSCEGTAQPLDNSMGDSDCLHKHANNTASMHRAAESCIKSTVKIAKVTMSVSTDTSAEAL
In words: CB1 receptor binding, [3H]CP-55,940 displacement. The settings on record: rat forebrain membranes. As to the method:
Some inventive analogs were tested for CB2 receptor binding affinity and for CB1 receptor affinity (to determine selectivity). […] The lower the Ki value, the higher the binding affinity. […] For the CB1 receptor binding studies, membranes were prepared from rat forebrain membranes according to the procedure of P. R. Dodd et al, A Rapid Method for Preparing Synaptosomes: Comparison with Alternative Procedures, Brain Res., 107-118 (1981). The binding of the novel analogues to the CB1 cannabinoid receptor was assessed as described in W. A. Devane et al, Determination and Characterization of a Cannabinoid Receptor in a Rat Brain, Mol. Pharmacol., 34, 605-613 (1988) and A. Charalambous et al, 5′-azido Δ^8-THC: A Novel Photoaffinity Label for the Cannabinoid Receptor, J. Med. Chem., 35, 3076-3079 (1992) with the following changes. The above articles are incorporated by reference herein.
Membranes, previously frozen at −80° C., were thawed on ice. To the stirred suspension was added three volumes of TME (25 mM Tris-HCl buffer, 5 mM MgCl2 and 1 mM EDTA) at a pH 7.4. The suspension was incubated at 4° C. for 30 min. At the end of the incubation, the membranes were pelleted and washed three times with TME.
(§1) The treated membranes were subsequently used in the binding assay described below. Approximately 30 μg of membranes were incubated in silanized 96-well microtiter plate with TME containing 0.1% essentially fatty acid-free bovine serum albumin (BSA), 0.8 nM [^3H] CP-55,940, and various concentrations of test materials in a final volume of 200 μL. The assays were incubated for 1 hour at 30° C. and then immediately filtered using Packard Filtermate 196 harvester and Whatman GF/C filterplates and washed with wash buffer (TME) containing 0.5% BSA. Radioactivity was detected using MicroScint 20 scintillation cocktail added directly to the dried filterplates, and the filterplates were counted using a Packard Instruments Top-Count. Nonspecific binding was assessed using 100 nM CP-55,940. Data collected from three independent experiments performed with duplicate determinations was normalized between 100% and 0% specific binding for [^3H] CP-55,940, determined using buffer and 100 nM CP-55,940. The normalized data was analyzed using a 4-parameter nonlinear logistic equation to yield IC50 values.

Test [2] addresses T2, CB2 receptor (Mus musculus, UniProt P47936).
T2 construct: membranes were prepared from frozen mouse spleen; from tissue; host or cells: mouse spleen
Description: CB2 receptor binding, [3H]CP-55,940 displacement. The note with it: mouse spleen membranes. The procedure: as §1
For the CB2 receptor binding studies, membranes were prepared from frozen mouse spleen essentially according to the procedure of P. R. Dodd et al, A Rapid Method for Preparing Synaptosomes: Comparison with Alternative Procedures, Brain Res., 226, 107-118 (1981) which is incorporated by reference herein. Silanized centrifuge tubes were used throughout to minimize receptor loss due to adsorption. The CB2 binding assay was conducted in the same manner as for the CB1 binding assay. The binding affinities (Ki) were also expressed in nanomoles (nM).

Test [3] deals with anandamide transporter. In words: [3H]Anandamide transporter competition assay. Format: cell-based. The settings on record: human CCF-STG1 astrocytoma cells, 10 nM [3H]anandamide. The procedure:
Human CCF-STG1 astrocytoma cells (American Type Culture collection) were grown in RPMI1640 culture medium containing 2 mM L-glutamine, 4.5 g/L glucose, 10 mM HEPES, and 1.0 mM sodium pyruvate, 10% FBS, cultures at 37° C. with 5% CO2. For standard competition assays, confluent cells grown in 24-well plates were rinsed and preincubated for 10 min at 37° C. in assay buffer (Hank's Balanced Salt Solution containing 0.1% DMSO, 10 mM HEPES) plus test compounds (at their final concentrations of 0.01-100 μM). After having discarded the preincubation media, the cells were incubated for 4 min in 0.2 ml assay buffer containing 10 nM [^3H] anandamide (137.6 Ci/mmol, New England Nuclear) plus test compounds. Reactions were stopped by removing the incubation media and rinsing the cells three times with 0.5 ml of ice-cold HBSS buffer containing 0.1% fatty acid-free Bovine Serum Albumin (sigma). Radioactive material in Triton X-100 cell extracts was measured by liquid scintillation counting. A minimum of three independent experiments conducted in six replicates was used to define the concentration needed to produce half-maximal inhibition (IC50) for each compound. IC50 values were obtained by nonlinear regression fitting of the data, using the PRIZM software package. Data are expressed as mean±SEM.

In test [4] the target is T3, FAAH (fatty acid amide hydrolase) (Rattus norvegicus, UniProt P97612).
T3 construct: Anandamide Amidase Activity in Rat Brain Microsomes; from tissue; host or cells: rat brain microsomes (by the cited procedure)
T3 sequence (P97612 1-579): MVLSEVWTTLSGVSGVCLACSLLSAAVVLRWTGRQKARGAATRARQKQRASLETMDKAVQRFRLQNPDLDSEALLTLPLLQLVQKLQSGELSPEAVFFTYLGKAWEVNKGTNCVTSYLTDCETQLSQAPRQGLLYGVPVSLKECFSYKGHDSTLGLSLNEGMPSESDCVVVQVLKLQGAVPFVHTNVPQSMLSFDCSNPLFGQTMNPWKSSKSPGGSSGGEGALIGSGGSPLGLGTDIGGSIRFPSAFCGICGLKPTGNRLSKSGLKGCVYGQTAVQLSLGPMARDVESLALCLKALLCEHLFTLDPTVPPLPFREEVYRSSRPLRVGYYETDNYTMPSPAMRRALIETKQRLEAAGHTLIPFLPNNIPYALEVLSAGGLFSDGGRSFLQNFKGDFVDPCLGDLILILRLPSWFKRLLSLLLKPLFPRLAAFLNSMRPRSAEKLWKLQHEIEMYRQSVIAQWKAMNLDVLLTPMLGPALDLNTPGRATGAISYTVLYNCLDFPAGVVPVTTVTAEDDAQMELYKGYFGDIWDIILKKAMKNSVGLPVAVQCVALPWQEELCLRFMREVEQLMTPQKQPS
In words: FAAH screening: inhibition of anandamide metabolism to arachidonic acid. The test is classed as biochemical. The settings on record: 25 nmoles compound with 25 nmoles AEA, 75 μg enzyme, 250 μL, 15 min. The procedure:
The FAAH (fatty acid amide hydrolase) enzyme preparation was obtained according to the procedure of Lang and Makriyannis et al High Performance Liquid Chromatographic Determination of Anandamide Amidase Activity in Rat Brain Microsomes, Analytical Biochemistry (238): 40-45, 1996.
All compound solutions were made to a concentration of 10 mM in DMSO. Three tests were performed on each compound: hydrolysis, to determine the stability of the compound in assay conditions without the enzyme present; metabolism, to determine the stability of the compound with the enzyme present; and inhibition of anandamide (native substrate) metabolism to arachidonic acid.
Again the reaction mixture was treated in the same manner as described above and the concentrations of AEA and AA were calculated using external standards. Percent inhibition was calculated using the following equation: % Inhib.=(AA15-AA0)i/(AA15-AA0)s where (AA15-AA0)c is the amount of arachidonic acid formed over 15 minutes from AEA with the inhibitor present and (AA15-AA0)s is the amount of arachidonic acid formed over 15 minutes from AEA when the inhibitor is not present. […] The reaction mixtures were treated as described above and the amount of AA formed was calculated. The software package GraphPad Prism was utilized to calculate IC50 and Ki. HPLC Conditions:
Chromatographic separation was achieved using an Ultrasphere ODS Pre-column (4.6×45 mm) from Beckman. Hardware consisted of a Waters Millennium HPLC system with a 20 μL injection loop. The mobile phase consisted of 8.5% o-phosphoric acid:acetonitrile (3:7), run isocratically at a rate of 1 mL/min and detection at 204 nm. The total run time was 8 minutes with AEA eluting at 2.2 minutes and AA at 6.0 minutes.

Where [5] appears, read: with PMSF (second value of cell), read-out: Ki CB1 (nM) (o/w PMSFQ).
The mark [6] stands for this setting: without PMSF (first value of cell), read-out: Ki CB1 (nM) (o/w PMSFQ).
The mark [7] stands for this setting: with PMSF (second value of cell), read-out: Ki CB1 (nM) (o/w PMSF).
The mark [8] stands for this setting: without PMSF (first value of cell), read-out: Ki CB1 (nM) (o/w PMSF).

T2 sequence (P47936 whole entry): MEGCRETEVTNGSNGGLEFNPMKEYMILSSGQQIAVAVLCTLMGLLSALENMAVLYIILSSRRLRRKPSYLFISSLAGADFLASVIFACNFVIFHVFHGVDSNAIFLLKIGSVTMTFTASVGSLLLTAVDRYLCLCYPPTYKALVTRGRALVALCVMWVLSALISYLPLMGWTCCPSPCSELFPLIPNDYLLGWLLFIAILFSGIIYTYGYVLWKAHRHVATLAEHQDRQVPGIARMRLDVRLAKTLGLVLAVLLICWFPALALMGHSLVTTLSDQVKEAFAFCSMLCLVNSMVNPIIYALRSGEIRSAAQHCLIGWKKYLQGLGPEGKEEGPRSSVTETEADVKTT

As for `O=C(CCC/C=C\C/C=C\C/C=C\C/C=C\CCCCCCl)NC1CC1` [Compound A20], the Ki in test [1] (setting [5]) stood at 0.17 nM; in test [1] (setting [6]), 57.9 nM; in test [2], 28.3 nM. In addition, the IC50 in test [3] (read-out: IC50 AT inhibition) is 4100 nM. In addition, in test [4], the “FAAH % Inhibition” value was determined as 67%.
For `CCCCC/C=C\C/C=C\C/C=C\C/C=C\CCCCOC(=O)NC1CCC1` [Compound B7], the Ki in test [1] (setting [7]) came out at 995 nM; in test [1] (setting [8]) it was 1410 nM; in test [2], 5310 nM. Further, in test [3] (read-out: IC50 (AT inhib.)), the 50% inhibitory concentration (IC50) was determined as 15500 nM.
`CCCCCN(C)C/C=C\C/C=C\C/C=C\C/C=C\CCCCNC(C)=O` [Compound A23]: the Ki in test [1] (setting [5]) came to 627 nM; in test [1] (setting [6]), 813 nM; in test [2], 1760 nM.
Take `CCCCC/C=C\C/C=C\C/C=C\C/C=C\CCCCNC(=O)OC[C@H](C)O` [Compound B16]: the Ki in test [1] (setting [7]) is 686 nM; in test [1] (setting [8]), 1200 nM; in test [2], 289 nM. Also, in test [3] (read-out: IC50 (AT inhib.)), the half-maximal inhibitory concentration (IC50) stood at 3290 nM.
On to `CCCCCN(C)C/C=C\C/C=C\C/C=C\C/C=C\CCCCNC(=O)COC` [Compound A24], for which the Ki in test [2] is 435 nM.
Turning to `CCCCC/C=C\C/C=C\C/C=C\C/C=C\CCCCOC(=O)N[C@@H](C)CO` [Compound B2], the Ki in test [1] (setting [7]) was found to be 996 nM; in test [1] (setting [8]) it was 1100 nM; in test [2], 2150 nM. Besides, the IC50 in test [3] (read-out: IC50 (AT inhib.)) worked out at 6400 nM. Moreover, the “FAAH % Inhibition” value in test [4] turned out to be 14.3%.
In the same order, the values of `CCCCC/C=C\C/C=C\C/C=C\C/C=C\CCCCOC(=O)NC(C)C` [Compound B5] are 343 nM, 510 nM, 543 nM, 21900 nM and 4.5%.
`CCCCC/C=C\C/C=C\C/C=C\C/C=C\CCCCOC(=O)NC1CCCCC1` [Compound B8]: the values for the Ki in test [1] (setting [7]), in test [1] (setting [8]) and in test [2] were 1470 nM, 3960 nM and 781 nM, respectively. In addition, the IC50 in test [3] (read-out: IC50 (AT inhib.)) was 33000 nM.
In turn, `CCCCCN(C)C/C=C\C/C=C\C/C=C\C/C=C\CCCCNC(=O)COC` [Compound A22] displayed a Ki in test [2] of 224 nM.
As to `[N-]=[N+]=NCCCC/C=C\C/C=C\C/C=C\C/C=C\CCCC(=O)NC1CCC1` [Compound A9], the results for the Ki in test [1] (setting [5]), in test [1] (setting [6]) and in test [2] were 31.9 nM, 112 nM and 72.4 nM, respectively. Moreover, in test [4], the “FAAH % Inhibition” value amounted to 58%.
The compound `C[C@H](CO)NC(=O)CCC/C=C\C/C=C\C/C=C\C/C=C\C12CC3CC(CC(C3)C1)C2` [Compound A28] yielded a Ki in test [2] of 3460 nM.
Take `COc1cc(CNC(=O)CCC/C=C\C/C=C\C/C=C\C/C=C\CCCCCN=[N+]=[N-])ccc1O` [Compound A15]: the figures for the Ki in test [1] (setting [5]), in test [1] (setting [6]) and in test [2] were 13.2 nM, 48.8 nM and 74.7 nM, respectively. Moreover, the “FAAH % Inhibition” value in test [4] was determined as 38%.
With `[N-]=[N+]=NCCCCC/C=C\C/C=C\C/C=C\C/C=C\CCCC(=O)NC1CC1` [Compound A5], the Ki in test [1] (setting [5]) worked out at 0.9 nM; in test [1] (setting [6]), 26.7 nM; in test [2] it was 57.6 nM. In test [3] (read-out: IC50 AT inhibition), the IC50 worked out at 2900 nM. Besides, in test [4], the “FAAH % Inhibition” value was determined as 7%.
In the same order, the values of `N#CCCCCC/C=C\C/C=C\C/C=C\C/C=C\CCCC(=O)NC1CC1` [Compound A19] are 0.04 nM, 32.9 nM, 5.7 nM, 23500 nM and 57%.
Regarding `CC(C)NC(=O)CCC/C=C\C/C=C\C/C=C\C/C=C\CCCCN=C=S` [Compound A10], the Ki came to 7.7 nM in test [1] (setting [5]), 95.2 nM in test [1] (setting [6]) and 52.7 nM in test [2]. Also, the “FAAH % Inhibition” value in test [4] was determined as 84%.
In the same order, the values of `O=C(CCC/C=C\C/C=C\C/C=C\C/C=C\CCCCN=C=S)NCC1CC1` [Compound A11] are 34.2 nM, 91.7 nM, 70.9 nM and 90%.
Turning to `CCCCCN(C)C/C=C\C/C=C\C/C=C\C/C=C\CCCC(=O)NC1CC1` [Compound A21], the Ki in test [1] (setting [5]) worked out at 66.3 nM; in test [1] (setting [6]) it was 76.5 nM; in test [2], 238 nM.
Turning to `C[C@H](CO)NC(=O)CCC/C=C\C/C=C\C/C=C\C/C=C\CCC12CC3CC(CC(C3)C1)C2` [Compound A29], the Ki in test [2] worked out at 5670 nM.
Take `CCCCC/C=C\C/C=C\C/C=C\C/C=C\CCCCOC(=O)NC1CC1` [Compound B6]: the Ki was found to be 75.1 nM in test [1] (setting [7]), 181 nM in test [1] (setting [8]) and 983 nM in test [2]. The IC50 in test [3] (read-out: IC50 (AT inhib.)) was 15500 nM.
As for `CCCCCN(C)C/C=C\C/C=C\C/C=C\C/C=C\CCCCNC(C)=O` [Compound A25], the results for the Ki in test [1] (setting [5]), in test [1] (setting [6]) and in test [2] were 1030 nM, 1500 nM and 3650 nM, respectively.
